Data: patent US20080318949A1, “Pyrazolopyrimidinone Derivatives, Their Preparation And Their Use” (Topharman Shanghai Co., Ltd, priority 2005, published 2008)
pIC50: −log10 of the molar value.

target: T1, PDE5 from human platelets (Homo sapiens, UniProt O76074); experiment: PDE5 inhibitory activity test (scintillation proximity assay); format: biochemical; settings: PDE5 from human platelets
T1 construct: from tissue; host or cells: human platelets
From the text: The PDE5 and PDE3 were isolated form human platelets, while the PDE6 was isolated form bovine retinas. The enzyme inhibitory activity test conducted immediately after the enzymes had been isolated, using a scintillation proximity assay for the direct detection of AMP/GMP by the TRKQ7100 and TRKQ7090 kit. In summary, the effect of PDE inhibitors was investigated by assaying a fixed amount of enzyme in the presence of varying inhibitor concentrations and low substrate. The final assay volume was made up to 100 μl with 10 μl assay buffer (50 mM Tris/HCl PH 7.5, 8.3 mM MgCl2, 1.7 mM EGTA), and water. Reactions were initiated with enzyme, incubate for 30 minutes at 30° C. and terminated with 50 μl yttrium silicate SPA beads suspension containing zinc sulphate. Shook for 20 minutes and settled for 30 minutes in the dark, then counted on a BECKMAN LS6500 MULTI-PURPOSE SCINTILLATION COUNTER. The IC50 value for the compounds according the present invention was calculated according the counts.
According to the above-mentioned method, the inhibitory activities of some compounds of formula IA and IB according to the invention against PDE5 from human platelets were determined.

Point of comparison: “1-methyl-5-{2-ethoxy-5-{[1-methyl-1-[2-[1-methyl-1-(2-hydroxyethyl)]amino]ethyl]amidosulfonyl}phenyl}-3-n-propyl-1,6-dihydro-7H-pyrazolo[4,3-d]pyrimidin-7-one [Example 21]”, pIC50 9.03. Against it:
- 1-methyl-5-{2-ethoxy-5-[bis(3-acetoxypropyl)amidosulfonyl]phenyl}-3-n-propyl-1,6-dihydro-7H-pyrazolo[4,3-d]pyrimidin-7-one [Example 108] — 1.27 log units lower, 7.76
- 1-methyl-5-{2-propoxy-5-[[1-ethyl-1-(2-acetoxyethyl)]amidosulfonyl]phenyl}-3-n-propyl-1,6-dihydro-7H-pyrazolo[4,3-d]pyrimidin-7-one [Example 94] — 0.76 log units lower, 8.27
- CCCc1nn(C)c2c(=O)[nH]c(-c3cc(S(=O)(=O)N(CC)CCN(CC)CCOC(C)=O)ccc3OCC)nc12 [Example 17] — 0.96 log units lower, 8.07
- CCCOc1ccc(S(=O)(=O)N(CCCO)CCCO)cc1-c1nc2c(CCC)nn(C)c2c(=O)[nH]1 [Example 37] — 0.72 log units lower, 8.31
- 1-methyl-5-{2-propoxy-5-[[1-(2-pyridylmethyl)-1-(2-piperidin-1-yl)ethyl]amidosulfonyl]phenyl}-3-n-propyl-1,6-dihydro-7H-pyrazolo[4,3-d]pyrimidin-7-one [Example 87] — 0.97 log units lower, 8.06
- CCOc1ccc(S(=O)(=O)N(CC)CCN(CC)CCOC(C)=O)cc1-c1nc2c(CC)nn(CC)c2c(=O)[nH]1 [Example 19, 1-ethyl-5-{2-ethoxy-5-{[1-ethyl-1-[2-[1-ethyl-1-(2-acetoxyethyl)]amino]ethyl]amidosulfonyl}phenyl}-3-n-propyl-1,6-dihydro-7H-pyrazolo[4,3-d]pyrimidin-7-one] — 0.66 log units lower, 8.37
- 1-methyl-5-{2-propoxy-5-[[1-benzyl-1-(2-pyrrolidin-1-yl)ethyl]amidosulfonyl]phenyl}-3-n-propyl-1,6-dihydro-7H-pyrazolo[4,3-d]pyrimidin-7-one [Example 84] — 1.10 log units lower, 7.93
- CCOc1ccc(S(=O)(=O)N(CCO)CCO)cc1-c1nc2c(CC)nn(C)c2c(=O)[nH]1 [Example 8] — 0.36 log units lower, 8.67
- CCCc1nn(C)c2c(=O)[nH]c(-c3cc(S(=O)(=O)N(CCO)CCN4CCCCC4)ccc3OCC)nc12 [Example 29, 1-methyl-5-{2-ethoxy-5-[[1-(2-hydroxyethyl)-1-(2-piperidin-1-yl)ethyl]amidosulfonyl]phenyl}-3-n-propyl-1,6-dihydro-7H-pyrazolo[4,3-d]pyrimidin-7-one] — 0.48 log units higher, 9.51
- CCCc1nn(C)c2c(=O)[nH]c(-c3cc(S(=O)(=O)N(CCOCCO)CCN(CC)CC)ccc3OCC)nc12 [Example 16, 1-methyl-5-{2-ethoxy-5-[1-(2-diethylaminoethyl)-1-(2-hydroxyethoxyethyl)amidosulfonyl]phenyl}-3-n-propyl-1,6-dihydro-7H-pyrazolo[4,3-d]pyrimidin-7-one] — 1.16 log units lower, 7.87
- 1-methyl-5-{2-propoxy-5-[[1-(3-ethoxyethyl)-1-(2-hydroxyethyl)]amidosulfonyl]phenyl}-3-n-propyl-1,6-dihydro-7H-pyrazolo[4,3-d]pyrimidin-7-one [Example 116] — 1.08 log units lower, 7.95
- CCCc1nn(C)c2c(=O)[nH]c(-c3cc(S(=O)(=O)N(CCO)CCN(CC)CC)ccc3OCC)nc12 [Example 13, 1-methyl-5-{2-ethoxy-5-[1-(2-diethylaminoethyl)-1-(2-hydroxyethyl)amidosulfonyl]phenyl}-3-n-propyl-1,6-dihydro-7H-pyrazolo[4,3-d]pyrimidin-7-one] — 0.90 log units lower, 8.13
- CCCc1nn(C)c2c(=O)[nH]c(-c3cc(S(=O)(=O)N(C)CCN(C)CCOCCOCCOCc4ccccc4)ccc3OCC)nc12 [Example 22, 1-methyl-5-{2-ethoxy-5-{[1-methyl-1-[2-[1-methyl-1-(2-benzyloxyethoxyethoxyethyl)]amino]ethyl]amidosulfonyl}phenyl}-3-n-propyl-1,6-dihydro-7H-pyrazolo[4,3-d]pyrimidin-7-one] — 0.50 log units higher, 9.53
- CCCc1nn(C)c2c(=O)[nH]c(-c3cc(S(=O)(=O)N(CCOC)CCN(CC)CC)ccc3OCC)nc12 [Example 11, 1-methyl-5-{2-ethoxy-5-[[1-(2-diethylaminoethyl)-1-(2-methoxyethyl)]amidosulfonyl]phenyl}-3-n-propyl-1,6-dihydro-7H-pyrazolo[4,3-d]pyrimidin-7-one] — 1.61 log units lower, 7.42
- CCCc1nn(C)c2c(=O)[nH]c(-c3cc(S(=O)(=O)N(CCOCCO)CCN4CCOCC4)ccc3OCC)nc12 [Example 28, 1-methyl-5-{2-ethoxy-5-[[1-(2-hydroxyethoxyethyl)-1-(2-morpholin-1-yl)ethyl]amidosulfonyl]phenyl}-3-n-propyl-1,6-dihydro-7H-pyrazolo[4,3-d]pyrimidin-7-one] — within 0.2 log units, 9.17
- CCCc1nn(C)c2c(=O)[nH]c(-c3cc(S(=O)(=O)N(CCN4CCOCC4)Cc4ccccc4)ccc3OC)nc12 [Example 26, 1-methyl-5-{2-methoxy-5-[[1-benzyl-1-(2-morpholin-1-yl)ethyl]amidosulfonyl]phenyl}-3-n-propyl-1,6-dihydro-7H-pyrazolo[4,3-d]pyrimidin-7-one] — 1.43 log units lower, 7.60
- CCCOc1ccc(S(=O)(=O)N(C)CCN(C)CCO)cc1-c1nc2c(CCC)nn(C)c2c(=O)[nH]1 [Example 23, 1-methyl-5-{2-propoxy-5-{[1-methyl-1-[2-[1-methyl-1-(2-hydroxyethyl)]amino]ethyl]amidosulfonyl}phenyl}-3-n-propyl-1,6-dihydro-7H-pyrazolo[4,3-d]pyrimidin-7-one] — 1.11 log units higher, 10.14
- CCCc1nn(C)c2c(=O)[nH]c(-c3cc(S(=O)(=O)N(CCOC(C)=O)CCN(CC)CC)ccc3OCC)nc12 [Example 12, 1-methyl-5-{2-ethoxy-5-[[1-(2-diethylaminoethyl)-1-(2-acetoxyethyl)]amidosulfonyl]phenyl}-3-n-propyl-1,6-dihydro-7H-pyrazolo[4,3-d]pyrimidin-7-one] — 0.87 log units lower, 8.16
- CCCc1nn(C)c2c(=O)[nH]c(-c3cc(S(=O)(=O)N(CCOC(C)=O)CCOC(C)=O)ccc3OCCOC)nc12 [Example 9, 1-methyl-5-{2-methoxyethoxy-5-[bis(2-acetoxyethyl)amidosulfonyl]phenyl}-3-n-propyl-1,6-dihydro-7H-pyrazolo[4,3-d]pyrimidin-7-one] — 1.26 log units lower, 7.77
- 1-methyl-5-{2-propoxy-5-[[1-(2-hydroxyethoxyethyl)-1-(2-morpholin-1-yl)ethyl]amidosulfonyl]phenyl}-3-n-propyl-1,6-dihydro-7H-pyrazolo[4,3-d]pyrimidin-7-one [Example 104] — 1.15 log units lower, 7.88
- CCCc1nn(C)c2c(=O)[nH]c(-c3cc(S(=O)(=O)N(CC)CCN(CC)CCO)ccc3OCC)nc12 [Example 18] — 0.83 log units lower, 8.20
- CCOc1ccc(S(=O)(=O)N(CCOC(=O)c2cccnc2)CCOC(=O)c2cccnc2)cc1-c1nc2c(CC)nn(C)c2c(=O)[nH]1 [Example 7, 1-methyl-5-{2-ethoxy-5-[bis(2-nicotinoyloxyethyl)amidosulfonyl]phenyl}-3-ethyl-1,6-dihydro-7H-pyrazolo[4,3-d]pyrimidin-7-one] — 0.27 log units higher, 9.30
- 1-methyl-5-{2-methoxyethoxy-5-[bis(2-hydroxyethyl)amidosulfonyl]phenyl}-3-n-propyl-1,6-dihydro-7H-pyrazolo[4,3-d]pyrimidin-7-one [Example 10] — 1.38 log units lower, 7.65
